Data: PubChem BioAssay (NCI)
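Each compound was tested at five concentrations against cells in 96-well plates for 48 hours. GI50: concentration for 50% inhibition of growth. TGI denotes the concentration required for complete inhibition of growth.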

Tests used:
Assay in all cases: DTP human tumour cell line panel, 48 h
786-0 renal = system: 786-0 renal
A498 renal = system: A498 renal
A549 NSCLC = system: A549 NSCLC
ACHN renal = system: ACHN renal
BT-549 breast = system: BT-549 breast
CAKI-1 renal = system: CAKI-1 renal
CCRF-CEM leukemia = system: CCRF-CEM leukemia
COLO 205 colon = system: COLO 205 colon
DU-145 prostate = system: DU-145 prostate
EKVX NSCLC = system: EKVX NSCLC
HCC-2998 colon = system: HCC-2998 colon
HCT-116 colon = system: HCT-116 colon
HCT-15 colon = system: HCT-15 colon
HL-60(TB) leukemia = system: HL-60(TB) leukemia
HOP-62 NSCLC = system: HOP-62 NSCLC
HOP-92 NSCLC = system: HOP-92 NSCLC
HS 578T breast = system: HS 578T breast
HT29 colon = system: HT29 colon
K-562 leukemia = system: K-562 leukemia
KM12 colon = system: KM12 colon
LOX IMVI melanoma = system: LOX IMVI melanoma
M14 melanoma = system: M14 melanoma
MALME-3M melanoma = system: MALME-3M melanoma
MCF7 breast = system: MCF7 breast
MDA-MB-435 = system: MDA-MB-435
MOLT-4 leukemia = system: MOLT-4 leukemia
NCI-H226 lung = system: NCI-H226 lung
NCI-H23 lung = system: NCI-H23 lung
NCI-H460 lung = system: NCI-H460 lung
NCI-H522 lung = system: NCI-H522 lung
NCI/ADR-RES ovarian = system: NCI/ADR-RES ovarian
OVCAR-3 ovarian = system: OVCAR-3 ovarian
OVCAR-4 ovarian = system: OVCAR-4 ovarian
OVCAR-5 ovarian = system: OVCAR-5 ovarian
OVCAR-8 ovarian = system: OVCAR-8 ovarian
PC-3 prostate = system: PC-3 prostate
RXF 393 renal = system: RXF 393 renal
SF-268 CNS = system: SF-268 CNS
SF-295 CNS = system: SF-295 CNS
SF-539 CNS = system: SF-539 CNS
SK-MEL-2 melanoma = system: SK-MEL-2 melanoma
SK-MEL-28 melanoma = system: SK-MEL-28 melanoma
SK-MEL-5 melanoma = system: SK-MEL-5 melanoma
SK-OV-3 ovarian = system: SK-OV-3 ovarian
SN12C renal = system: SN12C renal
SNB-19 CNS = system: SNB-19 CNS
SNB-75 CNS = system: SNB-75 CNS
SR leukemia = system: SR leukemia
SW-620 colon = system: SW-620 colon
T-47D breast = system: T-47D breast
TK-10 renal = system: TK-10 renal
U251 CNS = system: U251 CNS
UACC-257 melanoma = system: UACC-257 melanoma
UACC-62 melanoma = system: UACC-62 melanoma
UO-31 renal = system: UO-31 renal

In the case of `COc1ncc(-c2ccc3nccc(C#CCCCCC(=O)O)c3c2)cc1NS(=O)(=O)c1ccc(F)cc1F`, the GI50 (786-0 renal) is reported as 1040 nM, the TGI (786-0 renal) is reported as 17.3 µM and the GI50 (A498 renal) is reported as 40.8 nM. The TGI (A498 renal) was 799 nM, the GI50 (A549 NSCLC) was 557 nM and the TGI (A549 NSCLC) was over 100 µM. It also gave a GI50 (ACHN renal) of 2730 nM, a TGI (ACHN renal) of over 100 µM and a GI50 (BT-549 breast) of 449 nM. The TGI (BT-549 breast) was 8.92 µM, the GI50 (CAKI-1 renal) was 819 nM and the TGI (CAKI-1 renal) was over 100 µM. The GI50 (CCRF-CEM leukemia) was 1210 nM, the TGI (CCRF-CEM leukemia) was over 100 µM and the GI50 (COLO 205 colon) was 108 nM. The TGI (COLO 205 colon) was 30.2 µM, the GI50 (DU-145 prostate) was 2090 nM and the TGI (DU-145 prostate) was over 100 µM. It also gave a GI50 (EKVX NSCLC) of 1110 nM, a TGI (EKVX NSCLC) of 45.1 µM and a GI50 (HCC-2998 colon) of 626 nM. The TGI (HCC-2998 colon) was over 100 µM, the GI50 (HCT-116 colon) was 6.85 µM and the TGI (HCT-116 colon) was over 100 µM. It also gave a GI50 (HCT-15 colon) of 362 nM, a TGI (HCT-15 colon) of over 100 µM and a GI50 (HL-60(TB) leukemia) of 283 nM. It also gave a TGI (HL-60(TB) leukemia) of 59.1 µM, a GI50 (HOP-62 NSCLC) of 1160 nM and a TGI (HOP-62 NSCLC) of over 100 µM. For the same compound, the GI50 (HOP-92 NSCLC) was 15.8 nM, the TGI (HOP-92 NSCLC) was 620 nM and the GI50 (HS 578T breast) was 65.7 nM. It also gave a TGI (HS 578T breast) of 2340 nM, a GI50 (HT29 colon) of 82.6 nM and a TGI (HT29 colon) of over 100 µM. It also gave a GI50 (K-562 leukemia) of 17.2 µM, a TGI (K-562 leukemia) of over 100 µM and a GI50 (KM12 colon) of 2880 nM. For the same compound, the TGI (KM12 colon) was over 100 µM, the GI50 (LOX IMVI melanoma) was 941 nM and the TGI (LOX IMVI melanoma) was 18.9 µM. It also gave a GI50 (M14 melanoma) of 1610 nM, a TGI (M14 melanoma) of over 100 µM and a GI50 (MALME-3M melanoma) of 76.1 nM. It also gave a TGI (MALME-3M melanoma) of 916 nM, a GI50 (MCF7 breast) of 15 nM and a TGI (MCF7 breast) of over 100 µM. It also gave a GI50 (MDA-MB-435) of 845 nM, a TGI (MDA-MB-435) of over 100 µM and a GI50 (MOLT-4 leukemia) of 520 nM. For the same compound, the TGI (MOLT-4 leukemia) was 33.5 µM, the GI50 (NCI-H226 lung) was 4.73 µM and the TGI (NCI-H226 lung) was over 100 µM. The GI50 (NCI-H23 lung) was 2390 nM, the TGI (NCI-H23 lung) was over 100 µM and the GI50 (NCI-H460 lung) was 324 nM. The TGI (NCI-H460 lung) was over 100 µM, the GI50 (NCI-H522 lung) was 1250 nM and the TGI (NCI-H522 lung) was over 100 µM. The GI50 (NCI/ADR-RES ovarian) was 3.97 µM, the TGI (NCI/ADR-RES ovarian) was over 100 µM and the GI50 (OVCAR-3 ovarian) was 733 nM. For the same compound, the TGI (OVCAR-3 ovarian) was 23.3 µM, the GI50 (OVCAR-4 ovarian) was 3.62 µM and the TGI (OVCAR-4 ovarian) was 83.8 µM. The GI50 (OVCAR-5 ovarian) was 122 nM, the TGI (OVCAR-5 ovarian) was over 100 µM and the GI50 (OVCAR-8 ovarian) was 2360 nM. It also gave a TGI (OVCAR-8 ovarian) of over 100 µM, a GI50 (PC-3 prostate) of 548 nM and a TGI (PC-3 prostate) of over 100 µM. It also gave a GI50 (RXF 393 renal) of 1120 nM, a TGI (RXF 393 renal) of 6.02 µM and a GI50 (SF-268 CNS) of 1170 nM. It also gave a TGI (SF-268 CNS) of over 100 µM, a GI50 (SF-295 CNS) of 735 nM and a TGI (SF-295 CNS) of 6.45 µM. For the same compound, the GI50 (SF-539 CNS) was 492 nM, the TGI (SF-539 CNS) was 5.87 µM and the GI50 (SK-MEL-2 melanoma) was 1600 nM. The TGI (SK-MEL-2 melanoma) was 15.2 µM, the GI50 (SK-MEL-28 melanoma) was 539 nM and the TGI (SK-MEL-28 melanoma) was over 100 µM. The GI50 (SK-MEL-5 melanoma) was 2840 nM, the TGI (SK-MEL-5 melanoma) was 15 µM and the GI50 (SK-OV-3 ovarian) was 43.2 nM. For the same compound, the TGI (SK-OV-3 ovarian) was 657 nM, the GI50 (SN12C renal) was 2550 nM and the TGI (SN12C renal) was over 100 µM. The GI50 (SNB-19 CNS) was 2050 nM, the TGI (SNB-19 CNS) was 84.9 µM and the GI50 (SNB-75 CNS) was 19.9 nM. It also gave a TGI (SNB-75 CNS) of 980 nM, a GI50 (SR leukemia) of 1670 nM and a TGI (SR leukemia) of 44.1 µM. For the same compound, the GI50 (SW-620 colon) was 1910 nM, the TGI (SW-620 colon) was over 100 µM and the TGI (T-47D breast) was 84.9 nM. The GI50 (TK-10 renal) was 84.6 nM, the TGI (TK-10 renal) was 9.67 µM and the GI50 (U251 CNS) was 562 nM. For the same compound, the TGI (U251 CNS) was 27.8 µM, the GI50 (UACC-257 melanoma) was 355 nM and the TGI (UACC-257 melanoma) was 5.92 µM. For the same compound, the GI50 (UACC-62 melanoma) was 274 nM, the TGI (UACC-62 melanoma) was 3.02 µM and the GI50 (UO-31 renal) was 207 nM. The TGI (UO-31 renal) was 14.1 µM.
